Test results from ChEMBL document CHEMBL1129472, “The structure-activity relationship between peroxisome proliferator-activated receptor gamma agonism and the antihyperglycemic activity of thiazolidinediones” (J Med Chem, 1996).

Columns and labels:
[1] = target: T1, Peroxisome proliferator-activated receptor gamma (Mus musculus, UniProt P37238)
T1 sequence (P37238 whole entry): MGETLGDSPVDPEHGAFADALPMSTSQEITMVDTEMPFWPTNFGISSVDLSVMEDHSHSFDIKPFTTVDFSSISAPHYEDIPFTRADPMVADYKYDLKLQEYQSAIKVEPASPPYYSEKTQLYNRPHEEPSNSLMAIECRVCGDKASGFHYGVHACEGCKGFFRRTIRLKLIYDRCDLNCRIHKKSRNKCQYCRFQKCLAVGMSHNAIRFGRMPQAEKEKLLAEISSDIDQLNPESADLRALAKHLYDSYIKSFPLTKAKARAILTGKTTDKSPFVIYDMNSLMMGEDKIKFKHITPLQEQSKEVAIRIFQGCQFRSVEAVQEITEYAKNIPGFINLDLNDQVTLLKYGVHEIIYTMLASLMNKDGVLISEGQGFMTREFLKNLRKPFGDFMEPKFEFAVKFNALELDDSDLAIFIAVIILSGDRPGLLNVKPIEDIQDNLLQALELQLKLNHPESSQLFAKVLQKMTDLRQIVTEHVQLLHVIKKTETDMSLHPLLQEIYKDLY
Description: In vitro transcriptional activation of Peroxisome proliferator activated receptor gamma (PPAR) expressed in CV-1 cells

[2] = target: T2, Peroxisome proliferator-activated receptor delta (Mus musculus, UniProt P35396); settings: cv-1
T2 sequence (P35396 whole entry): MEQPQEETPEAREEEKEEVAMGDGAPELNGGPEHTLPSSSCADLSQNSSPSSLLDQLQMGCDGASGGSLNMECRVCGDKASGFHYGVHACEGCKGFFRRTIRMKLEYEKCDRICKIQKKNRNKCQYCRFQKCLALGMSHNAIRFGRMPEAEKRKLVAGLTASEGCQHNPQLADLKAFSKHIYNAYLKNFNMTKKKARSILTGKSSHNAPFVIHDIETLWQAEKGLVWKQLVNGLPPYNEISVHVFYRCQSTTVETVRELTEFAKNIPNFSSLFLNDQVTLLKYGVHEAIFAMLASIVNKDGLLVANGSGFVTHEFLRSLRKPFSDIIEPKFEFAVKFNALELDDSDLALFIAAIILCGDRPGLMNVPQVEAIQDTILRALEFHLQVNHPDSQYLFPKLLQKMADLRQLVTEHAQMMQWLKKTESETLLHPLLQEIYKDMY

Mus musculus = organism: Mus musculus; assay: Minimum effective dose required for significant reduction in blood glucose in ob/ob mice; format: functional
[3] = target: T3, Peroxisome proliferator-activated receptor alpha (Mus musculus, UniProt P23204); assay: In vitro transcriptional activation of peroxisome proliferator activated alpha-receptor (PPAR) expressed in CV-1 cells; Inactive; format: functional, cell-based
T3 sequence (P23204 whole entry): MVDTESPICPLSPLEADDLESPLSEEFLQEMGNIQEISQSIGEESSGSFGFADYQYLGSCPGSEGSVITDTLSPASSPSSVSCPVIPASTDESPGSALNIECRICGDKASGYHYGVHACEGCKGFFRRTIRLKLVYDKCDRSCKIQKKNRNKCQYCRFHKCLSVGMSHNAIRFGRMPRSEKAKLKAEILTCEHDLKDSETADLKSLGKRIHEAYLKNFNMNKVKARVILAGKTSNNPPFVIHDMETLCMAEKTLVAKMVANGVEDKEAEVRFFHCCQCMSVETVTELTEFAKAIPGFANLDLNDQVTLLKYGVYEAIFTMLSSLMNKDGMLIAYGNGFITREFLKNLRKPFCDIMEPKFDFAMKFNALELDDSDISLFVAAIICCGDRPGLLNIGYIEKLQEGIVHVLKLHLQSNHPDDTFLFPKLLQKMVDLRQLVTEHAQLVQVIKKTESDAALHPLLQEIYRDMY

[4] = target: T3, Peroxisome proliferator-activated receptor alpha; assay: In vitro transcriptional activation of peroxisome proliferator activated alpha-receptor (PPAR) expressed in CV-1 cells; format: functional, cell-based

`CN(CCOc1ccc(/C=C2\SC(=O)NC2=O)cc1)c1nc2ccccc2o1` was tested, and the EC50 [1] was 0.14 µM, the EC50 [2] was “Not Active” and the MED (Mus musculus) was 300 µM/kg. For the same compound, the EC50 [3] was “Not Active”.

For `CN(CCOc1ccc(C2SC(=O)NC2=O)cc1)c1nc2ccccc2o1` (configuration not stated), the EC50 [1] was 10 µM, the EC50 [2] was “Not Active” and the MED (Mus musculus) was greater than 1000 µM/kg. The EC50 [3] was “Not Active”.

`CN(CCOc1ccc(/C=C2\SC(=O)NC2=O)cc1)c1ccccn1` was tested, and the EC50 [1] was 0.19 µM, the EC50 [2] was “Not Active” and the MED (Mus musculus) was 300 µM/kg. The EC50 [3] was “Not Active”.

For `CN(CCCOc1ccc(CC2SC(=O)NC2=O)cc1)c1nc2ccccc2o1` (configuration not stated), the EC50 [1] was 1 µM, the EC50 [2] was “Not Active” and the MED (Mus musculus) was 300 µM/kg. For the same compound, the EC50 [3] was “Not Active”.

For `O=C(O)CCC(=O)c1ccc(Oc2ccc(Cl)cc2)cc1`, the EC50 [1] was 110 µM, the EC50 [2] was “Not Active” and the EC50 [4] was 80 µM.

`CN(CCOc1ccc(CC2SC(=O)NC2=O)cc1)c1nc2ccccc2o1` (configuration not stated) [BRL-48482] was tested, and the EC50 [2] was “Not Active”, the MED (Mus musculus) was 3 µM/kg and the EC50 [3] was “Not Active”.

`CC1(COc2ccc(CC3SC(=O)NC3=O)cc2)CCCCC1` (configuration not stated) [CIGLITAZONE] was tested, and the EC50 [1] was 3 µM, the EC50 [2] was “Not Active” and the MED (Mus musculus) was 3000 µM/kg. For the same compound, the EC50 [3] was “Not Active”.

In the case of `CC(C)(Oc1ccc(Cl)cc1)C(=O)O` [CLOFIBRIC ACID], the EC50 [1] is reported as 600 µM, the EC50 [2] is reported as “Not Active” and the EC50 [4] is reported as 51 µM.

`O=C1NC(=O)C(Cc2ccc3c(c2)CC[C@H](Cc2ccccc2)O3)S1` (some centres not stated) [ENGLITAZONE] was tested, and the EC50 [1] was 13 µM, the EC50 [2] was “Not Active” and the EC50 [3] was “Not Active”.

With `CCc1ccc(CCOc2ccc(CC3SC(=O)NC3=O)cc2)nc1` (configuration not stated) [PIOGLITAZONE] the EC50 [2] was “Not Active”, the MED (Mus musculus) was 300 µM/kg and the EC50 [3] was “Not Active”.

`CN(CCOc1ccc(CC2SC(=O)NC2=O)cc1)c1ccccn1` (configuration not stated) [ROSIGLITAZONE] was tested, and the MED (Mus musculus) was 3 µM/kg and the EC50 [3] was “Not Active”.
